Results reported in patent publication US20080076751A1, “Azetidinone Derivatives and Methods of Use Thereof” (priority 2006, published 2008).

Columns and labels:
TRPV1 (VR1) [1] = molecular target: T1, TRPV1 (VR1) (Rattus norvegicus, UniProt O35433); assay: TRPV1 screening assay (FLIPR, Fluo-4 calcium), PMA stimulation; format: cell-based; conditions: HEK293-TetOFF-TRPV1, PMA
T1 construct: expressed in transfected cells; host or cells: HEK293-TetOFF, expression induced by withdrawing doxycycline
T1 sequence (O35433 whole entry): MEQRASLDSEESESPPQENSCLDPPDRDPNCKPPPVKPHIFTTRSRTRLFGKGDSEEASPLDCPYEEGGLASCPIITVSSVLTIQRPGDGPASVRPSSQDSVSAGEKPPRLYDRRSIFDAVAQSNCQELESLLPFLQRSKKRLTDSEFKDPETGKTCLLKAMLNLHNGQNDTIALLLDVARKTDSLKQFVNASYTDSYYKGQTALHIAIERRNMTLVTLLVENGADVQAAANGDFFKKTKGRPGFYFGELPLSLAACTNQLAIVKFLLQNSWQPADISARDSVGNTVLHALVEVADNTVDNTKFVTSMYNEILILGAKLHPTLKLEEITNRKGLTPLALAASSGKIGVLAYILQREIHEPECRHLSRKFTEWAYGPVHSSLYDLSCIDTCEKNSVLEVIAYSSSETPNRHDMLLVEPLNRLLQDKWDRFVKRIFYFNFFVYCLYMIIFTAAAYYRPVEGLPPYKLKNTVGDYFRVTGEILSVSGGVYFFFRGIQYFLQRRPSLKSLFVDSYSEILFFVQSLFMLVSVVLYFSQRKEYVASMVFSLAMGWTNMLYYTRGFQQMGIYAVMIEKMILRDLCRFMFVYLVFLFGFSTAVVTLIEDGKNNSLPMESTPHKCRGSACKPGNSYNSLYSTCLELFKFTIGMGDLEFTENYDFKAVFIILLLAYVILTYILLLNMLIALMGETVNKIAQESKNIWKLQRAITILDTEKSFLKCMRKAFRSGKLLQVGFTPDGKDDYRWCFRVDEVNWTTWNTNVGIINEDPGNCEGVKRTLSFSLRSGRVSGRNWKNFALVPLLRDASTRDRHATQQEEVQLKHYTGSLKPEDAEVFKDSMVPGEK
Experimental: 2) FLIPR buffer is prepared fresh:
(§1) For assay: • a) Dilute stock by adding 0.8 μL into 1 mL of MeOH (final=80 uM). • b) Add 50 μL of diluted stock to 20 mL of FLIPR buffer (final=0.2 uM) • c) Agonist solution is added 150 μL/well to 96-well plate. • d) Final agonist concentration on cells will be 50 nM. […] Laser is adjusted upwards for an average signal≧10,000/well and less than 10% variability. 7) Compound addition conditions are as follows: • FLIPR setup (dual sequence parameters): • Sequence 1: • First interval 1 sec/60 counts • Second interval 6 sec/50 counts • Fluid addition=50 μL • Pipettor height 110 μL • Dispense Speed=30 μL/sec • Sequence 2: • Second interval 1 sec/60 counts • Second interval 6 sec/40 counts • Fluid addition=50 μL • Pipettor height=140 μL • Dispense Speed=50 μL/sec Data Analysis: • 1) Data from both additions is reported as Max-Min for each well

TRPV1 (VR1) [2] = molecular target: T1, TRPV1 (VR1); assay: TRPV1 screening assay (FLIPR, Fluo-4 calcium), capsaicin stimulation; format: cell-based; conditions: FLIPR, HEK293-TetOFF-TRPV1, capsaicin 50 nM final; read-out: VR1 flipr CAPSAICIN IC50
From the text: (§2) • 1) Cell line: HEK293-Tet^OFF-TRPV1 • 2) Media: MEM (Invitrogen) • 3) 10% Tet-FBS (Clontech #8630-1) • 4) Fungizone (Gibe #15290-018 (100X)) • 5) Penn/Strep (Gibco #15140-122 (100X)) • 6) Geneticin (Gibco #10131-027 (100X)) • 7) Hygromycin (Clontech #8057-1) • 8) Doxycycline (Clontech #8634-1) • 9) Trypsin/EDTA (Gibco #25200-056) • 10) 100 mm cell culture plates (Falcon #3003) • 11) 96-well poly-D-lysine plates (Fisher #08-774-256) • 12) Hank's Balanced Salt Solution (HBSS) (GIBCO #14025-092) • 13) HEPES Buffer (GIBCO #15630-080) • 14) 30% BSA (Research Organics #1334A) • 15) Probenecid (Sigma P-8761) • 16) Fluo-4, AM (50 μg) (Molecular Probes F-23917) • 17) Pluronic F-127 20% (Molecular Probes P-3000). • 18) capsazepine (Sigma C-191) • 19) capsaicin (Sigma M-2028) • 20) compound plates (NUNC #442587) • 21) black pipet tips 96-well FLIPR (Robbins Scientific 1043-24-0) • 22) Additional reagents available from Fisher: methanol, DMSO, NaOH Reagent Preparation: 1) Cells: HEK293-Tet^OFF-TRPV11
(§3) • and Doxycycline 2.5 μg/mL final (from a 1000× stock in PBS) • Cells must be fed and/or split every 2-3 days (to maintain transcriptional repression with Doxycycline). • Must be split no more than 1:5 (50-75% confluency) to maintain growth and viability. • Grown on regular tissue culture plates (e.g Falcon 3003-100 mm) • Split cells via Trypsin/EDTA: incubate with trypsin at room temperature no longer than 5 minutes (HEK293 cells have a tendency to ball up if over trypsinized). • Two days prior to assay, the cells are split into 96-well plates in cell media in the absence of doxycycline at a concentration of 40,000 cells/well in a volume of 200 μL. 2) FLIPR buffer is prepared fresh:
Add 5 mL of Probenecid Solution, prepared as follows: 710 mg of probenecid (Sigma P-8761) is solubilized in 5 mL of 1N NaOH, 5 mL of above buffer is added for final volume of 10 mL. (of which 5 mL goes back into FLIPR buffer)
Combine 42 μL of dye mixture with 11 mL of FLIPR buffer/96-well plate.
Stock solution of 0.1 M capsaicin is prepared in MeOH (50 mg+1.6 mL MeOH). Store 50 μL aliquots at −80° C.
as §1

NPC1L1 = NPC1L1 (Rattus norvegicus, UniProt Q6T3U3); assay: NPC1L1 binding assay (BODIPY-labeled glucuronidated ezetimibe competition), rat
human NPC1L1 = molecular target: T2, human NPC1L1 (Homo sapiens, UniProt Q9UHC9); assay: NPC1L1 binding assay (BODIPY-labeled glucuronidated ezetimibe competition), human; conditions: HEK-293 cells expressing human NPC1L1, 4 hours at 37° C.
T2 construct: expressed in transfected cells; host or cells: HEK-293 (geneticin selection)
T2 sequence (Q9UHC9 22-1359): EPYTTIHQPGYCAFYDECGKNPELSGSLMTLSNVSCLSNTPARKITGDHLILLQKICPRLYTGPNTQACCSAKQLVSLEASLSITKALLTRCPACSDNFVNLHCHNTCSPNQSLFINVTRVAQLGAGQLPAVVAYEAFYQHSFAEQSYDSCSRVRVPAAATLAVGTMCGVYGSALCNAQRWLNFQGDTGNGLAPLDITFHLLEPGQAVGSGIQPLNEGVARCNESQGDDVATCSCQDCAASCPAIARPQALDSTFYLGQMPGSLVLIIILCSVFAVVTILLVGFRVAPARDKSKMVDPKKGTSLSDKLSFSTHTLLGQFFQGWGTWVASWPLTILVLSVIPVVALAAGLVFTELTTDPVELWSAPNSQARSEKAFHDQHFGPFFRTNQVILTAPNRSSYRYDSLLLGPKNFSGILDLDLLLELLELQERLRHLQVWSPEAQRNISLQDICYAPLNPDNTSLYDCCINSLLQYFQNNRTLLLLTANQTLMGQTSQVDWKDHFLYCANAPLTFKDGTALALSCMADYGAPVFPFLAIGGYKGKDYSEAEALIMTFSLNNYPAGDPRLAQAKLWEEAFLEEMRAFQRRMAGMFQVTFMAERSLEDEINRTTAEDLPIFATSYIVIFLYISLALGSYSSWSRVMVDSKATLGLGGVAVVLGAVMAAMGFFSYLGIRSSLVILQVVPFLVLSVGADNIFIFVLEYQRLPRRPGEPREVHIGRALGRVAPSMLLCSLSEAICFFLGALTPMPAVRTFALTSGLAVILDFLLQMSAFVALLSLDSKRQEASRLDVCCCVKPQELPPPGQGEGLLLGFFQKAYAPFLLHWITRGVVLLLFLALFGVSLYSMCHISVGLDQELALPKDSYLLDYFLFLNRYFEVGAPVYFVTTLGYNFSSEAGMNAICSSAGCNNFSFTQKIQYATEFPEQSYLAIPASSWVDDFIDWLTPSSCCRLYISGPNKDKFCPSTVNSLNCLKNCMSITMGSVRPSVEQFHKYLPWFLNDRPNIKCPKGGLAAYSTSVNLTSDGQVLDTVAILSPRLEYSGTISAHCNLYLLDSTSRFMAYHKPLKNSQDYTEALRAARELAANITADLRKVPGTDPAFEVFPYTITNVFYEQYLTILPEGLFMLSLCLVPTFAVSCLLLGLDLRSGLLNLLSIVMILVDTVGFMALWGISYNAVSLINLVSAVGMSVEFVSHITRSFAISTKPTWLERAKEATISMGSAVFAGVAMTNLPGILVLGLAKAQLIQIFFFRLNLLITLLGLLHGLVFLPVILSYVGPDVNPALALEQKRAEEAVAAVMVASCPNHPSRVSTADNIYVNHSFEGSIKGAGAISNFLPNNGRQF
Experimental: HEK-293 cells expressing human NPC1L1 were plated into 384-well black/clear plates (BD Biosciences, Bedford Mass.) for binding experiments the following day. Cell growth media (DMEM, 10% fetal calf serum, 1 mg/mL geneticin, 100 Units/mL penicillin) was aspirated. Cell growth media ([…]) containing 250 nM BODIPY-labeled glucuronidated ezetimibe was added to each well. Cell growth media ([…]) containing the indicated concentration of compound was then added to the wells. Unlabeled glucuronidated ezetimibe ([…]) was used to determine nonspecific binding. The binding reaction was allowed to proceed for 4 hours at 37° C. Subsequently the cell growth media was aspirated and the cells washed once with PBS. The remaining fluorescent labeled glucuronidated ezetimibe bound to the cells was quantified using a FlexStation plate reader (Molecular Devices, Sunnyvale Calif.) to measure fluorescence intensity. Ki values were determined from competition binding curves (n=4 for each point) using Prism and Activity Base software.

rat VR1 = molecular target: T3, rat VR1 (Rattus norvegicus, UniProt O35433); assay: TRPV1 screening assay (FLIPR), rat VR1 % activation at single concentration; format: cell-based
T3 construct: expressed in transfected cells; host or cells: HEK293-TetOFF
T3 sequence (O35433 whole entry): as the sequence (O35433 whole entry) above
From the text: as §2, §3
For assay: • a) Dilute stock by adding 0.8 μL into 1 mL of MeOH (final=80 uM). • b) Add 50 μL of diluted stock to 20 mL of FLIPR buffer (final=0.2 uM) • c) Agonist solution is added 150 μL/well to 96-well plate. • d) Final agonist concentration on cells will be 50 nM. (˜EC80) 6) Compound Plate preparation: • a) Compound plate is filled with 150 μL/well of FLIPR buffer • b) 3 μL of compound mixtures (1 mg/mL) is added to each well (represents a 3× solution and final DMSO=0.67%) Assay Procedure: • 1) Media is removed from cells grown in 96-well dishes. • 2) 100 μL of Fluo-4 containing FLIPR buffer in pipetted into each well. • 3) Plates are incubated for 30-60 minutes at 37° C. in 5% CO2 incubator. • 4) Plates are then washed three times with 100 μL of FLIPR buffer. • 5) 100 μL of FLIPR buffer is left in each well and plate is incubated at 37° C. for at least 20 minutes. • 6) Signal of dye-labeled plate is initially determined using laser at 0.300 W with an exposure time of 0.4 seconds. Laser is adjusted upwards for an average signal≧10,000/well and less than 10% variability. 7) Compound addition conditions are as follows: • FLIPR setup (dual sequence parameters): • Sequence 1: • First interval 1 sec/60 counts • Second interval 6 sec/50 counts • Fluid addition=50 μL • Pipettor height 110 μL • Dispense Speed=30 μL/sec • Sequence 2: • Second interval 1 sec/60 counts • Second interval 6 sec/40 counts • Fluid addition=50 μL • Pipettor height=140 μL • Dispense Speed=50 μL/sec Data Analysis: • 1) Data from both additions is reported as Max-Min for each well

SMILES | IC50 (TRPV1 (VR1) [1]) [nM] | IC50 (TRPV1 (VR1) [2]) [nM] | further results
O=C(Nc1c(Cl)cccc1Cl)N1CCC2(CC1)C(=O)N(c1ccccc1)C2c1ccccc1 (stereo not drawn) | – | – | Ki (NPC1L1): 1520 nM; Ki (human NPC1L1): 2120 nM
Cc1cccc(Cl)c1NC(=O)N1CCC2(CC1)C(=O)N(c1ccc(F)cc1)C2c1ccc(Cl)cc1 (stereo not drawn) | – | – | Ki (NPC1L1): 5950 nM; Ki (human NPC1L1): 10100 nM
O=C(Nc1c(Cl)cccc1Cl)N1CCC2(CC1)C(=O)N(c1ccc(F)cc1)C2c1ccc(Cl)cc1 (stereo not drawn) | – | – | Ki (NPC1L1): 4840 nM; Ki (human NPC1L1): 6410 nM
CC(C)(C)C1CCC(NC(=O)N2CCC3(CC2)CN(c2ccccc2)C3=O)CC1 (single isomer, unassigned) | 123 | 84 | –
O=C(Nc1c(Cl)cccc1Cl)N1CCC2(CC1)C(=O)N(c1ccccc1)C2c1ccccc1 (single isomer, unassigned) [drawing 666] | – | – | Ki (NPC1L1): 782 nM; Ki (human NPC1L1): 1570 nM
O=C(Nc1c(Cl)cccc1Cl)N1CCC2(CC1)C(=O)N(c1ccccc1)C2c1ccccc1 (single isomer, unassigned) [drawing 667] | – | – | Ki (NPC1L1): 18000 nM; Ki (human NPC1L1): 17600 nM
O=C(Nc1cccc(C(F)(F)F)c1)N1CCC2(CC1)C(=O)N(c1ccc(F)c(Cl)c1)C2c1ccccn1 (stereo not drawn) [drawing 660] | – | – | rat VR1 % activation @ 3.3 ug/ml compound (rat VR1): 98%
O=C(Nc1cccc(C(F)(F)F)c1)N1CCC2(CC1)C(=O)N(c1cncc(Cl)c1)C2c1ccccn1 (stereo not drawn) [drawing 661] | – | – | rat VR1 % activation @ 3.3 ug/ml compound (rat VR1): 61%
N#Cc1cc(F)cc(NC(=O)N2CCC3(CC2)C(=O)N(c2ccc(F)c(Cl)c2)C3c2ccccn2)c1 (stereo not drawn) [drawing 662] | – | – | rat VR1 % activation @ 3.3 ug/ml compound (rat VR1): 67%
N#Cc1cccc(N2C(=O)C3(CCN(C(=O)Nc4cccc(C(F)(F)F)c4)CC3)C2c2ccccn2)c1 (stereo not drawn) [drawing 663] | – | – | rat VR1 % activation @ 3.3 ug/ml compound (rat VR1): 61%
O=C(Nc1cc(F)cc(F)c1)N1CCC2(CC1)C(=O)N(c1cccc(Cl)c1)C2c1cccnc1 (stereo not drawn) [drawing 664] | – | – | rat VR1 % activation @ 3.3 ug/ml compound (rat VR1): 75%

Continued, in another order:

IC50 (TRPV1 (VR1) [1]) [nM] | IC50 (TRPV1 (VR1) [2]) [nM] | SMILES | further results
16 | 20 | O=C(Nc1ccc(C(F)(F)F)cc1)N1CCC2(CC1)C(=O)N(c1ccccn1)C2c1ccccc1 (stereo not drawn) | –
59 | 80 | CC(C)(C)c1ccc(NC(=O)N2CCC3(CC2)CN(c2ccccc2)C3=O)cc1 | –
81 | 98 | CCC(C)c1ccc(NC(=O)N2CCC3(CC2)C(=O)N(c2ccccc2)C3c2ccccc2)cc1 (stereo not drawn) | –
205 | 315 | O=C(Nc1ccc(C(F)(F)F)cn1)N1CCC2(CC1)C(=O)N(c1ccccc1)C2c1ccccc1 (stereo not drawn) | –
5 | 504 | CC(C)c1ccc(NC(=O)N2CCC3(CC2)CN(c2ccccc2)C3=O)cc1 | –
7 | 7 | O=C(Nc1ccc(C(F)(F)F)cc1)N1CCC2(CC1)C(=O)N(c1ccccn1)C2c1ccccc1 (single isomer, unassigned) | –
12 | 9 | CC(C)(C)c1ccc(NC(=O)N2CCC3(CC2)C(=O)N(c2ccccc2)C3c2ccccc2)cc1 (single isomer, unassigned) | –
31 | 48 | CC(C)(C)C1CCC(NC(=O)N2CCC3(CC2)C(=O)N(c2ccccc2)C3c2ccccc2)CC1 (single isomer, unassigned) | –
